{"source": "patent US11033578B2", "about": "“Nutritional supplement for growth enhancement” (Nutritional Growth Solutions LTD, priority 2013, dated 2021)", "origin": "cited, not measured here", "key": {"[1]": {"test_system": "children", "settings": "meta analysis; 95% CI: 0.46, 2.51"}, "[2]": {"test_system": "initially stunted infants", "settings": "daily syrup for six months; vs placebo"}}}
{"molecule": "[Fe]", "note": "[iron]", "values": [{"measurement": "increase in hemoglobin concentrations, effect size", "setting": "[1]", "result": 1.49}]}
{"molecule": "zinc [zinc-alone]", "values": [{"measurement": "mean height for age Z-score", "setting": "[2]", "result": "decreased to a greater extent than placebo"}]}
